According to the supplement of paper PMC10011410:
± gives the standard deviation of the averaged measurements.

Columns and labels:
Settings in all cases: 24 h
U-2 OS [1] = assay: cell painting activity score (Mahalanobis distance from DMSO wells); higher = stronger morphological phenotype
Method in brief: (§1)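 U-2 OS cells were seeded at about 1,500 per well in 384-well plates and treated by pin tool for 24 h at 37 °C, usually at six 2-fold concentrations from 20 μM to 625 nM. After staining with MitoTracker, concanavalin A, phalloidin, wheat germ agglutinin, Hoechst and SYTO 14, plates were imaged on an Opera Phenix and features were extracted with CellProfiler and normalized to DMSO cells on the same plate. The activity score is the Mahalanobis distance from DMSO wells, and cell count is given relative to DMSO wells. Each value is the mean of four replicate plates.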

U-2 OS [2] = assay: total intracellular glutathione (GSH + GSSG) relative to DMSO (% of control); higher = more glutathione
Method: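 Total intracellular glutathione (GSH + GSSG) in U-2 OS cells by GSH/GSSG-Glo after 24 h compound treatment at 5, 10 and 20 uM (some at 40 and 80 uM), as percent of DMSO control. Five technical replicate plates, averaged.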

U-2 OS [3] = assay: intracellular GSH:GSSG ratio (calculated); higher = more reduced glutathione pool
Method: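 Intracellular glutathione in U-2 OS cells after 24 h compound treatment at 5, 10 and 20 uM (some at 40 and 80 uM). Total glutathione and GSSG were measured with the GSH/GSSG-Glo kit, and the GSH:GSSG ratio was calculated. Mean of five technical replicate plates.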

U-2 OS [4] = assay: relative cell count vs DMSO (cell painting) (fraction of DMSO control); higher = more cells remaining (less cytotoxic)
Method in brief: as §1

U-2 OS [5] = assay: cell viability (CellTiter-Glo) relative to DMSO (% of control); higher = more viable
Method: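 Cell viability of U-2 OS cells by CellTiter-Glo after 24 h compound treatment at 5, 10 and 20 uM (some at 40 and 80 uM), measured in parallel with the glutathione assay, as percent of DMSO control. Five technical replicate plates, averaged.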

| SMILES | cell painting activity score (U-2 OS [1]; 0.625 µM) | cell painting activity score (U-2 OS [1]; 1.25 µM) | cell painting activity score (U-2 OS [1]; 2.5 µM) | cell painting activity score (U-2 OS [1]; 5 µM) | cell painting activity score (U-2 OS [1]; 10 µM) | cell painting activity score (U-2 OS [1]; 20 µM) | total intracellular glutathione (U-2 OS [2]; 5 µM) | total intracellular glutathione (U-2 OS [2]; 10 µM) | total intracellular glutathione (U-2 OS [2]; 20 µM) | intracellular GSH:GSSG ratio (U-2 OS [3]; 5 µM) | intracellular GSH:GSSG ratio (U-2 OS [3]; 10 µM) | intracellular GSH:GSSG ratio (U-2 OS [3]; 20 µM) | relative cell count (U-2 OS [4]; 0.625 µM) | relative cell count (U-2 OS [4]; 1.25 µM) | relative cell count (U-2 OS [4]; 2.5 µM) | relative cell count (U-2 OS [4]; 5 µM) | relative cell count (U-2 OS [4]; 10 µM) | relative cell count (U-2 OS [4]; 20 µM) | cell viability (U-2 OS [5]; 5 µM) | cell viability (U-2 OS [5]; 10 µM) | cell viability (U-2 OS [5]; 20 µM) | cell painting activity score (U-2 OS [1]; 40 µM) | cell painting activity score (U-2 OS [1]; 80 µM) | total intracellular glutathione (U-2 OS [2]; 40 µM) | total intracellular glutathione (U-2 OS [2]; 80 µM) | relative cell count (U-2 OS [4]; 40 µM) | relative cell count (U-2 OS [4]; 80 µM) | cell viability (U-2 OS [5]; 40 µM) | cell viability (U-2 OS [5]; 80 µM) | intracellular GSH:GSSG ratio (U-2 OS [3]; 40 µM) | intracellular GSH:GSSG ratio (U-2 OS [3]; 80 µM) |
| --- | --- | --- | --- | --- | --- | --- | --- | --- | --- | --- | --- | --- | --- | --- | --- | --- | --- | --- | --- | --- | --- | --- | --- | --- | --- | --- | --- | --- | --- | --- | --- |
| O=S1(=O)CC(Sc2cccs2)c2ccccc21 (stereo not given) | 3.43 | 3.86 | 4.15 | 3.78 | 3.12 | 10.7 | 115 ± 4.9 | 107 ± 9.4 | 120 ± 8.6 | 25.2 | 24.8 | 30 | 1.02 | 0.974 | 0.948 | 1 | 0.984 | 0.61 | 103 ± 5.5 | 100 ± 5.5 | 104 ± 4.5 | – | – | – | – | – | – | – | – | – | – |
| COC1=CC=C(S(=O)(O/N=C2C=C(C(C(C)=C\2)=O)C)=O)C=C1 | 4.25 | 8.9 | 10.5 | 12 | 16.6 | 24.6 | 59.9 ± 4 | 41.1 ± 5.9 | 6.59 ± 2.2 | 4.85 | 2.61 | – | 1.01 | 0.93 | 0.9 | 0.718 | 0.17 | 0.237 | 31.2 ± 1.5 | 15.9 ± 2 | 9.58 ± 10 | 22.8 | 20.4 | 0.79 ± 0.15 | 0.604 ± 0.13 | 0.146 | 0.0922 | 0.28 ± 0.061 | 0.124 ± 0.018 | – | – |
| COc1ccc(/C(Cl)=C(/C=O)c2ccc(OC)cc2)cc1 | 6.48 | 7.76 | 8.89 | 10.2 | 11.7 | 14.5 | 115 ± 4.6 | 108 ± 6.8 | 51.8 ± 4.8 | 22.2 | 14.8 | 3.39 | 0.912 | 0.934 | 0.941 | 0.937 | 0.849 | 0.395 | 102 ± 5.1 | 87.1 ± 4.2 | 49.8 ± 6 | 16.2 | 34 | 49.4 ± 2.6 | 8.12 ± 0.4 | 0.442 | 0.0713 | 44.2 ± 3.5 | 6.75 ± 0.88 | 4.6 | 1.06 |
| O=[N+]([O-])c1ccc(-c2nnc(SC3=CS(=O)(=O)c4ccccc43)o2)cc1 | 6.12 | 8.55 | 13.1 | 17.1 | 14.6 | 17.5 | 119 ± 3.7 | 38.4 ± 3.2 | 46.6 ± 3.2 | 10.4 | 3.4 | 3.08 | 0.934 | 0.893 | 0.773 | 0.394 | 0.225 | 0.29 | 84.5 ± 5.8 | 33.5 ± 5.2 | 49.4 ± 2.6 | – | – | – | – | – | – | – | – | – | – |
| C=CC(=O)Nc1cccc(Nc2nc(Nc3ccc(Oc4ccnc(C(=O)NC)c4)cc3)ncc2F)c1 | 4.92 | 4.2 | 6.51 | 4.99 | 8.06 | 9.39 | 64.2 ± 2 | 55.9 ± 4.7 | 5.78 ± 1.6 | 17.7 | 5.85 | 2.15 | 1 | 0.96 | 0.987 | 0.953 | 0.961 | 0.93 | 75.8 ± 3.4 | 59.5 ± 6.1 | 1.84 ± 1.1 | – | – | – | – | – | – | – | – | – | – |
| O=S1(=O)CC(SCc2ccccc2)c2ccccc21 (stereo not given) | 4.11 | 4.32 | 4.24 | 4.29 | 3.77 | 3.73 | 105 ± 2.7 | 98.7 ± 6.5 | 106 ± 6.4 | 30.3 | 20.1 | 26.3 | 1.13 | 1.12 | 1.06 | 1.07 | 1.14 | 1.12 | 107 ± 2.6 | 104 ± 5.2 | 97.8 ± 5.9 | – | – | – | – | – | – | – | – | – | – |
| c1cc(SSc2ccns2)sn1 | 5.35 | 4.46 | 6.31 | 8.63 | 14.8 | 17.2 | 93.2 ± 6.5 | 67.1 ± 14 | 31.5 ± 34 | 24.1 | 6.28 | 4.87 | 0.85 | 0.816 | 0.752 | 0.635 | 0.137 | 0.116 | 94.5 ± 3.6 | 62.9 ± 10 | 29 ± 8.2 | – | – | 25.6 ± 43 | 22.5 ± 43 | – | – | 2.06 ± 0.76 | 0.459 ± 0.058 | 0.0649 | – |
| COC(=O)c1ccc([C@H]2c3[nH]c4ccccc4c3C[C@H](C(=O)OC)N2C(=O)CCl)cc1 | 10.3 | 10.7 | 11.1 | 10.8 | 10 | 17.9 | 93.1 ± 5.2 | 75.3 ± 6.4 | 10.7 ± 1.2 | 3.83 | 3.98 | 1.09 | 0.876 | 0.867 | 0.818 | 0.68 | 0.524 | 0.186 | 69.6 ± 4.1 | 49.1 ± 4.9 | 6.2 ± 1.6 | – | – | – | – | – | – | – | – | – | – |
